Twelve molecules from US20140004243A1, “SALTY TASTE ENHANCER” (AJINOMOTO CO., INC., priority 2011, published 2014) can be followed below.

The structures appear in SMILES notation.

The target of this assay is T1, Human ENaC δ, β and γ subunit (Homo sapiens, UniProt P51168+P51170+P51172).
T1 construct: expressed in transfected cells; host or cells: Xenopus laevis (African clawed frog) oocytes injected with cRNA
T1 sequence (P51172 1-802): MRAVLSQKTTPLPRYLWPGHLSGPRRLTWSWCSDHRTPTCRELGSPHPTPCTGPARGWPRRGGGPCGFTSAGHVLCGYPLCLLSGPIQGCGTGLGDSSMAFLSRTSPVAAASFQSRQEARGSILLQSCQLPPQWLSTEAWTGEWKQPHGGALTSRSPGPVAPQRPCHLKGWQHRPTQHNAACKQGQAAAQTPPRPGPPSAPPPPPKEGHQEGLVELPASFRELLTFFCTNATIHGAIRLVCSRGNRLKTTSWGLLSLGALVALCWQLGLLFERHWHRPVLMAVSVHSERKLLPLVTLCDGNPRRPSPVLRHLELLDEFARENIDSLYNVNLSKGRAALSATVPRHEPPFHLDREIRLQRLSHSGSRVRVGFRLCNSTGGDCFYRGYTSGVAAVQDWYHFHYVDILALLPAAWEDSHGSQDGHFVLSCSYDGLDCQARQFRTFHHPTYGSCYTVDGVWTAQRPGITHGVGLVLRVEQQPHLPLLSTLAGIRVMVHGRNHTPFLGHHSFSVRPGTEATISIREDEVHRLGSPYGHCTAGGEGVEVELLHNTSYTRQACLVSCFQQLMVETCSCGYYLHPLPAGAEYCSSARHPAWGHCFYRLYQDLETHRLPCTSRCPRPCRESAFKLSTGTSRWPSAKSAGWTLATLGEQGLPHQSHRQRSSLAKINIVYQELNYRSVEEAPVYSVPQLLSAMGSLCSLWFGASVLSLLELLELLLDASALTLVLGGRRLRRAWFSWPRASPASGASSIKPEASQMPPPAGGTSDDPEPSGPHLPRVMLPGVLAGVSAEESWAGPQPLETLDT
T1 sequence (P51168 1-640): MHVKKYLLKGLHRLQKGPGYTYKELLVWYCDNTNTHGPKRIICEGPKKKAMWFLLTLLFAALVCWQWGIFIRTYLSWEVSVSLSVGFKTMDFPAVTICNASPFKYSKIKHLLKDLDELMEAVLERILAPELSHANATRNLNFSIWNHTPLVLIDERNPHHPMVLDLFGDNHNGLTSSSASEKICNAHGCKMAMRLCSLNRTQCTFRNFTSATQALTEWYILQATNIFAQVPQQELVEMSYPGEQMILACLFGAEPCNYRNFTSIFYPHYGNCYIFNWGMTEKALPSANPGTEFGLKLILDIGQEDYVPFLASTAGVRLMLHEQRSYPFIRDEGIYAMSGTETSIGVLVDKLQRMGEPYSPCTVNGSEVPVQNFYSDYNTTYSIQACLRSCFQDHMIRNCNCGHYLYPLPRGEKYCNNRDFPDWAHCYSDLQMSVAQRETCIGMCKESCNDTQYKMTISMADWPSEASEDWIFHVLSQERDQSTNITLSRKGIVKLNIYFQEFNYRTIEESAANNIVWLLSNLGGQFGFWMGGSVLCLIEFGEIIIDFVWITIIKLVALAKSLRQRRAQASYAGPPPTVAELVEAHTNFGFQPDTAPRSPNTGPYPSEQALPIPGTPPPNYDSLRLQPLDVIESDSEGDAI
T1 sequence (P51170 1-649): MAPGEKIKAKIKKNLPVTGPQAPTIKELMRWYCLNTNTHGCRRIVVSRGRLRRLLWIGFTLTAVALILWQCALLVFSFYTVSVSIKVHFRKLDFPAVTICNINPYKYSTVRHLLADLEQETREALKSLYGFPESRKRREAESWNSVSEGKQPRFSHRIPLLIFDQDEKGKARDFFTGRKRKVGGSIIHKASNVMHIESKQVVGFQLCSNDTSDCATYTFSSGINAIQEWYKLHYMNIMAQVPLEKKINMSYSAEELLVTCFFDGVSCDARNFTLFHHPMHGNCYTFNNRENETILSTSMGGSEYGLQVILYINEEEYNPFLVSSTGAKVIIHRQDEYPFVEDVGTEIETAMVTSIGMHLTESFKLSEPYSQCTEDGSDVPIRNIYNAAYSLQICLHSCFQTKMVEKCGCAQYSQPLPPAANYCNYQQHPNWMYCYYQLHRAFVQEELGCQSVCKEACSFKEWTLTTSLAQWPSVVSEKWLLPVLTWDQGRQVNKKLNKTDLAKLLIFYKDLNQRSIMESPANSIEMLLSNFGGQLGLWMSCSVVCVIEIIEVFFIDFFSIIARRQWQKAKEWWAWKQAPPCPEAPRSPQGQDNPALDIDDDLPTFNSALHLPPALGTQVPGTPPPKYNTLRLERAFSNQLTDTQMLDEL
The assay can be described thus: Measurement of ENaC activation potency (MED) in ENaC-expressing oocyte, Two Electrode Voltage Clamp. The assay is classed as cell-based. To be noted: minimum effective dose at which current started to increase; ENaC-expressing African clawed frog oocyte; smaller MED = higher ENaC activation potency. The gist of the method:
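Xenopus oocytes injected with human ENaC δ, β and γ cRNA, cultured 16–72 hr, voltage-clamped 30 mV below resting potential in ND96 (pH 7.6) by two-electrode voltage clamp. Compounds (0.1 nM–300 μM) perfused at rising concentrations every 3 min. MED = lowest dose raising current ≥10%, or raising 5 μM capsazepine-evoked current ≥25%, whichever smaller.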
(In general: Two-electrode voltage clamp is typically applied to oocytes expressing channels or transporters.)
Molecule `C[C@@H](NC(=S)NCC(O)c1cccc(O)c1O)c1cccc(O)c1` (stereo partly drawn) [Example 111] had an MED of 0.06 to 0.1 µM. Then `C[C@@H](NC(=S)NCC(O)c1cc(O)ccc1O)c1cccc(O)c1` (stereo partly drawn) [Example 112], with 0.1 µM; and `Cc1ccc(O)c(C(O)CNC(=S)N[C@H](C)c2cccc(O)c2)c1` (stereo partly drawn) [Example 113], with 0.3 µM. For `C[C@@H](NC(=S)NCC(O)c1cc(Cl)ccc1O)c1cccc(O)c1` (stereo partly drawn) [Example 115], the MED lay in the range of 0.06 to 0.1 µM. Then `C[C@@H](NC(=S)NCC(O)c1cc(Br)ccc1O)c1cccc(O)c1` (stereo partly drawn) [Example 116], with 0.1 µM.

`O=C(O)c1ccccc1NC(=S)Nc1ccc(Cl)cc1` [Example 117] came in with an MED of 0.3 µM. With `C[C@@H](NC(=S)Nc1ccccc1C(=O)O)c1cccc(O)c1` [Example 118], the MED came out at 0.1 µM.

Molecule `COC(=O)c1cc(O)ccc1NC(=S)N(C)CCc1ccccc1` [Example 119] showed an MED of 3 µM. The molecule `CN(CCc1ccccc1)C(=S)Nc1ccc(O)cc1C(=O)O` [Example 120] showed an MED of 0.1 to 0.3 µM. Molecule `CN(CCc1ccccc1O)C(=S)Nc1ccc(O)cc1C(=O)O` [Example 124] displayed an MED of 0.3 µM.

In turn, `C[C@@H](NC(=S)NCCc1ccccc1C(=O)O)c1cccc(O)c1` [Example 125, 2-(2-{3-[(R)-1-(3-hydroxyphenyl)ethyl]thioureido}ethyl)benzoic acid] gave an MED of 0.06 to 0.1 µM.

Regarding `COc1cccc(OC)c1NC(=S)NCCc1c[nH]c2ccc(O)cc12` [Example 126], the MED was found to be 10 µM.
